# Experimental data from patent US20200308170A1, “KRAS G12C INHIBITORS” (Mirati Therapeutics, Inc., priority 2017, published 2020).
# Target: KRas G12C (Homo sapiens, UniProt P01116, G12C)
# Assay: Inhibition of KRas G12C in NCI-H358 cells measured by phosphorylated ERK (Phospho-ERK)
# Assay type: cell-based
# Settings: 3 hours, 4 parameter fit, read-out: IC50 (pERK(Thr202/Tyr204) signal normalized with GAPDH)
# Procedure: Cells were plated in poly-D-Lysine coated 96-well plates at a concentration of 50,000 cells/well and allowed to attach for 8-12 hours. Diluted compounds were then added at a final concentration of 0.5% DMSO. After 3 hours, the medium was removed, 150 μL of 4% formaldehyde was added and the plates were incubated for 20 minutes. The plates were washed with PBS, and permeabilized using 150 μL of ice cold 100% methanol for 10 minutes. Non-specific antibody binding to the plates was blocked using 100 μL Licor Blocking Buffer (Li-Cor Biotechnology, Lincoln Nebr.) for 1 hour at room temperature. Positive control samples and samples lacking cells were parallel processed with test samples as standards.
# The amount Phospho-ERK was determined using an antibody specific for the phosphorylated form of ERK and compared to the amount of GAPDH. […] The plates were incubated for 2 hours at room temperature. The plates were washed with PBS+0.05% Tween 20.
# Secondary antibodies used to visualize primary antibodies were added as follows: Anti-rabbit-680 diluted 1:1000 and Anti-mouse-800 diluted 1:1000 in Licor Block+0.05% Tween 20 and incubated for 1 hour at room temperature. The plates were washed with PBS+0.05% Tween 20. A 100 μL aliquot of PBS was added to each well and the plates were read on a LICOR AERIUS plate reader.
# The pERK(Thr202/Tyr204) signal was normalized with the GAPDH signal and percent of DMSO control values were calculated. IC50 values were generated using a 4 parameter fit of the dose response curve.
# Chain of KRas G12C (P01116 1-188 isoform P01116-2 G12C): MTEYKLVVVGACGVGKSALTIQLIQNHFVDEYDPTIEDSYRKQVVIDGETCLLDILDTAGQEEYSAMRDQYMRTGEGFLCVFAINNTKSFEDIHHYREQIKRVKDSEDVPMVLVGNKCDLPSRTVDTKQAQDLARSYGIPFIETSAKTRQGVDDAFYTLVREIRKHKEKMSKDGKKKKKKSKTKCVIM
row,IC50 [nM],SMILES
1,0.1 to 1000,"C=C(F)C(=O)N1CCN(c2nc(OCC3(C)CCCN3C)nc3c2CCN(c2cccc4ccc(F)c(Cl)c24)C3)C[C@@H]1CC#N (stereo partly drawn) [Example 139, 2-((2S)-4-(7-(8-chloro-7-fluoronaphthalen-1-yl)-2-((1,2-dimethylpyrrolidin-2-yl)methoxy)-5,6,7,8-tetrahydropyrido[3,4-d]pyrimidin-4-yl)-1-(2-fluoroacryloyl)piperazin-2-yl)acetonitrile]"
2,1000 to 10000,"CN1CC(F)(F)C[C@H]1COc1nc2c(c(N3CCN(C(=O)/C=C/CN4CC(F)C4)[C@@H](CC#N)C3)n1)CCN(c1cccc3cccc(Cl)c13)C2 [Example 57, 2-((S)-4-(7-(8-chloronaphthalen-1-yl)-2-(((S)-4,4-difluoro-1-methylpyrrolidin-2-yl)methoxy)-5,6,7,8-tetrahydropyrido[3,4-d]pyrimidin-4-yl)-1-((E)-4-(3-fluoroazetidin-1-yl)but-2-enoyl)piperazin-2-yl)acetonitrile]"
3,0.1 to 1000,C=C(F)C(=O)N1CCN(c2nc(OCC3COC3)nc3c2CCN(c2cccc4ccc(F)c(Cl)c24)C3)C[C@@H]1CC#N [Example 197]
4,0.1 to 1000,C=C(F)C(=O)N1CCN(c2nc(OC[C@@H]3[C@@H]4CC[C@@H](C4)N3C)nc3c2CCN(c2cccc4ccc(F)c(Cl)c24)C3)C[C@@H]1CC#N [Example 190]
5,0.1 to 1000,C=C(F)C(=O)N1CCN(c2nc(OCC(C)N3CCOCC3)nc3c2CCN(c2cccc4ccc(F)c(Cl)c24)C3)C[C@@H]1CC#N (some centres unmarked) [Example 177]
6,0.1 to 1000,C=C(F)C(=O)N1CCN(c2nc(OCC34CCCN3CC(F)(F)C4)nc3c2CCN(c2cccc4ccc(F)c(Cl)c24)C3)C[C@@H]1CC#N (some centres unmarked) [Example 174]
7,0.1 to 1000,C=C(F)C(=O)N1CCN(c2nc(OCC34CCCN3CCC4)nc3c2CCN(c2cccc(C)c2C)C3)C[C@@H]1CC#N [Example 142]
8,0.1 to 1000,"C=C(F)C(=O)N1CCN(c2nc(OCC34CCCN3CCC4)nc3c2CCN(c2cccc4ccc(F)c(Cl)c24)C3)C[C@@H]1CC#N [Example 138, (S)-2-(4-(7-(8-chloro-7-fluoronaphthalen-1-yl)-2-((tetrahydro-1H-pyrrolizin-7a(5H)-yl)methoxy)-5,6,7,8-tetrahydropyrido[3,4-d]pyrimidin-4-yl)-1-(2-fluoroacryloyl)piperazin-2-yl)acetonitrile]"
9,0.1 to 1000,C=C(F)C(=O)N1CCN(c2nc(OCC3N(C)CC3(C)C)nc3c2CCN(c2cccc4ccc(F)c(Cl)c24)C3)C[C@@H]1CC#N (some centres unmarked) [Example 187]
10,0.1 to 1000,C=C(F)C(=O)N1CCN(c2nc(OC[C@@H]3C[C@@H](OC)CN3C)nc3c2CCN(c2cccc4ccc(F)c(Cl)c24)C3)C[C@@H]1CC#N [Example 170]
11,0.1 to 1000,"C=C(F)C(=O)N1CCN(c2nc(OCC3CCN3C(C)(C)C)nc3c2CCN(c2cccc4cccc(C)c24)C3)C[C@@H]1CC#N (stereo partly drawn) [Example 74, 2-((2S)-4-(2-((1-(tert-butyl)azetidin-2-yl)methoxy)-7-(8-methylnaphthalen-1-yl)-5,6,7,8-tetrahydropyrido[3,4-d]pyrimidin-4-yl)-1-(2-fluoroacryloyl)piperazin-2-yl)acetonitrile]"
12,0.1 to 1000,C=C(F)C(=O)N1CCN(c2nc(OCC34CCCCN3CCC4)nc3c2CCN(c2cccc4ccc(F)c(Cl)c24)C3)C[C@@H]1CC#N (some centres unmarked) [Example 151]
13,0.1 to 1000,"C=C(F)C(=O)N1CCN(c2nc(OC[C@@H]3CC(F)(F)CN3)nc3c2CCN(c2cccc4ccc(F)c(Cl)c24)C3)C[C@@H]1CC#N [Example 208, 2-((S)-4-(7-(8-chloro-7-fluoronaphthalen-1-yl)-2-(((S)-4,4-difluoropyrrolidin-2-yl)methoxy)-5,6,7,8-tetrahydropyrido[3,4-d]pyrimidin-4-yl)-1-(2-fluoroacryloyl)piperazin-2-yl)acetonitrile]"
14,0.1 to 1000,C=C(F)C(=O)N1CCN(c2nc(OCC3CCN3C(C)C)nc3c2CCN(c2cccc4ccc(F)c(Cl)c24)C3)C[C@@H]1CC#N (some centres unmarked) [Example 178]
15,0.1 to 1000,"COC/C=C/C(=O)N1CCN(c2nc(OC[C@@H]3CC(F)(F)CN3C)nc3c2CCN(c2cccc4cccc(C)c24)C3)C[C@@H]1CC#N [Example 60, 2-((S)-4-(2-(((S)-4,4-difluoro-1-methylpyrrolidin-2-yl)methoxy)-7-(8-methylnaphthalen-1-yl)-5,6,7,8-tetrahydropyrido[3,4-d]pyrimidin-4-yl)-1-((E)-4-methoxybut-2-enoyl)piperazin-2-yl)acetonitrile]"
16,1000 to 10000,C=C(F)C(=O)N1CCN(c2nc(OC[C@@H]3CCCN3C)nc3c2CCN(c2cccc4ccc(Cl)c(Cl)c24)C3)C[C@@H]1CC#N [Example 137]
17,0.1 to 1000,C=C(F)C(=O)N1CCN(c2nc(OC[C@@H]3CCCN3CC)nc3c2CCN(c2cccc4ccc(F)c(Cl)c24)C3)C[C@@H]1CC#N [Example 185]
18,0.1 to 1000,C=C(F)C(=O)N1CCN(c2nc(OC[C@@H]3COCCN3Cc3ccccc3)nc3c2CCN(c2cccc4ccc(F)c(Cl)c24)C3)C[C@@H]1CC#N [Example 167]
19,0.1 to 1000,C=C(F)C(=O)N1CCN(c2nc(OCC34CCCN3CCC4)nc3c2CCN(c2cccc4cccc(Br)c24)C3)C[C@@H]1CC#N [Example 143]

row,IC50 [nM],SMILES
1,1000 to 10000,C=C(F)C(=O)N1CCN(c2nc(OC3CN4CCC3CC4)nc3c2CCN(c2cccc4ccc(F)c(Cl)c24)C3)C[C@@H]1CC#N (some centres unmarked) [Example 154]
2,1000 to 10000,C=C(F)C(=O)N1CCN(c2nc(O[C@H]3CCC[C@@H]3N(C)C)nc3c2CCN(c2cccc4ccc(F)c(Cl)c24)C3)C[C@@H]1CC#N [Example 153]
3,1000 to 10000,C=C(F)C(=O)N1CCN(c2nc(OCC(C)C(F)F)nc3c2CCN(c2cccc4ccc(F)c(Cl)c24)C3)C[C@@H]1CC#N (some centres unmarked) [Example 192]
4,0.1 to 1000,C=C(F)C(=O)N1CCN(c2nc(OCCN3C[C@@H]4CC3CO4)nc3c2CCN(c2cccc4ccc(F)c(Cl)c24)C3)C[C@@H]1CC#N [Example 193]
5,1000 to 10000,C=C(F)C(=O)N1CCN(c2nc(OC3CN(CCC#N)C3)nc3c2CCN(c2cccc4ccc(F)c(Cl)c24)C3)C[C@@H]1CC#N [Example 157]
6,0.1 to 1000,C=C(F)C(=O)N1CCN(c2nc(OCC34CCCN3CCC4)nc3c2CCN(c2cccc(C)c2C(F)(F)F)C3)C[C@@H]1CC#N [Example 144]
7,0.1 to 1000,"C=C(F)C(=O)N1CCN(c2nc(OC[C@@H]3CCCN3C(C)C)nc3c2CCN(c2cccc4ccc(F)c(Cl)c24)C3)C[C@@H]1CC#N [Example 147, 2-((S)-4-(7-(8-chloro-7-fluoronaphthalen-1-yl)-2-(((S)-1-isopropylpyrrolidin-2-yl)methoxy)-5,6,7,8-tetrahydropyrido[3,4-d]pyrimidin-4-yl)-1-(2-fluoroacryloyl)piperazin-2-yl)acetonitrile]"
8,0.1 to 1000,C=C(F)C(=O)N1CCN(c2nc(OCCCN3C[C@@H]4C[C@H]3CO4)nc3c2CCN(c2cccc4ccc(F)c(Cl)c24)C3)C[C@@H]1CC#N [Example 198]
9,0.1 to 1000,C=C(F)C(=O)N1CCN(c2nc(OCC34CCCN3C(C)CC4)nc3c2CCN(c2cccc4ccc(F)c(Cl)c24)C3)C[C@@H]1CC#N (some centres unmarked) [Example 186]
10,0.1 to 1000,C=C(F)C(=O)N1CCN(c2nc(OC[C@@H]3CCCN3C)nc3c2CCN(c2cccc4ccc(F)c(F)c24)C3)C[C@@H]1CC#N [Example 136]
11,0.1 to 1000,C=C(F)C(=O)N1CCN(c2nc(OC[C@@H]3C[C@@H](F)CN3C)nc3c2CCN(c2cccc4ccc(F)c(Cl)c24)C3)C[C@@H]1CC#N [Example 172]
12,1000 to 10000,C=C(F)C(=O)N1CCN(c2nc(OC3CCCN(C(C)C)C3)nc3c2CCN(c2cccc4ccc(F)c(Cl)c24)C3)C[C@@H]1CC#N (some centres unmarked) [Example 152]
13,0.1 to 1000,C=C(F)C(=O)N1CCN(c2nc(OCC3CCCO3)nc3c2CCN(c2cccc4ccc(F)c(Cl)c24)C3)C[C@@H]1CC#N (some centres unmarked) [Example 176]
14,1000 to 10000,C=C(F)C(=O)N1CCN(c2nc(OC3CN(C)C3)nc3c2CCN(c2cccc4ccc(F)c(Cl)c24)C3)C[C@@H]1CC#N [Example 168]
15,1000 to 10000,"C=C(F)C(=O)N1CCN(c2nc(OC3CCN(C4CCOCC4)CC3)nc3c2CCN(c2cccc4cccc(Cl)c24)C3)C[C@@H]1CC#N [Example 130, (S)-2-(4-(7-(8-chloronaphthalen-1-yl)-2-((1-(tetrahydro-2H-pyran-4-yl)piperidin-4-yl)oxy)-5,6,7,8-tetrahydropyrido[3,4-d]pyrimidin-4-yl)-1-(2-fluoroacryloyl)piperazin-2-yl)acetonitrile]"
16,0.1 to 1000,"C=C(F)C(=O)N1CCN(c2nc(OC[C@@H]3C[C@@H](F)CN3)nc3c2CCN(c2cccc4ccc(F)c(Cl)c24)C3)C[C@@H]1CC#N [Example 209, 2-((S)-4-(7-(8-chloro-7-fluoronaphthalen-1-yl)-2-(((2S,4R)-4-fluoropyrrolidin-2-yl)methoxy)-5,6,7,8-tetrahydropyrido[3,4-d]pyrimidin-4-yl)-1-(2-fluoroacryloyl)piperazin-2-yl)acetonitrile]"
17,0.1 to 1000,C=C(F)C(=O)N1CCN(c2nc(OCC3COCCO3)nc3c2CCN(c2cccc4ccc(F)c(Cl)c24)C3)C[C@@H]1CC#N (some centres unmarked) [Example 201]
18,0.1 to 1000,C=C(F)C(=O)N1CCN(c2nc(OC[C@H]3CN(C)CCO3)nc3c2CCN(c2cccc4ccc(F)c(Cl)c24)C3)C[C@@H]1CC#N [Example 195]
19,0.1 to 1000,C=C(F)C(=O)N1CCN(c2nc(OCC3CN(C)C3)nc3c2CCN(c2cccc4ccc(F)c(Cl)c24)C3)C[C@@H]1CC#N [Example 173]
